Test results: ChEMBL document CHEMBL1201862, “PubChem BioAssay data set” (2004)
The source made the active and inactive calls.

Columns and labels:
[1] = target: Eukaryotic translation initiation factor 4E (Mus musculus, UniProt P63073); assay: blockers of eIF4G binding by eIF4E – biochemical, TR-FRET, dose response (AID 855); assay type: functional;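 note: potency for disrupting eIF4E binding to eIF4GI seen as loss of FRET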
[2] = A cytotoxicity screen of small molecule inhibitors of the PhoP region in Salmonella typhi identified in the primary screen. [Related pubchem assays: 1850, 1864, 1985 ]; assay type: functional
[3] = target: Voltage-dependent T-type calcium channel subunit alpha-1H (Homo sapiens, UniProt O95180); assay type: functional;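 note: channel activity triggered by adding a high calcium stimulation buffer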
Cytochrome P450 3A4 = Cytochrome P450 3A4 (Homo sapiens, UniProt P08684); settings: Potency;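 note: confirmatory qHTS run detecting inhibitors and substrates of CYP3A4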
[4] = target: T1, Corticotropin-releasing factor receptor 2/Corticotropin-releasing factor-binding protein (Homo sapiens, UniProt P24387+Q13324); assay: Dose Response confirmation of uHTS hits for small molecule antagonists of the CRF-binding protein and CRF-R2 receptor complex.; assay type: functional; settings: read-out: IC50_Mean
T1 sequence (Q13324 whole entry): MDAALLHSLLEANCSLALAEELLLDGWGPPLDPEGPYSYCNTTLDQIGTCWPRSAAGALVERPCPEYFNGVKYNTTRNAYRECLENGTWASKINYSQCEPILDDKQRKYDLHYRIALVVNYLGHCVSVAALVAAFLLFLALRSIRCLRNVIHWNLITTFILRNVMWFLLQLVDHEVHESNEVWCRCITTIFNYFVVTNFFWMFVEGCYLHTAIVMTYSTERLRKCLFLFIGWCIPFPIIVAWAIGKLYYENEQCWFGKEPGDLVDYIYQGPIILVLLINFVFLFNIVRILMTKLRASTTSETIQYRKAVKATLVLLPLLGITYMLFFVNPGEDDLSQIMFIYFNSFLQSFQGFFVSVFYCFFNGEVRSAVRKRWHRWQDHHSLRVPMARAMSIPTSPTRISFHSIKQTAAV
T1 sequence (P24387 whole entry): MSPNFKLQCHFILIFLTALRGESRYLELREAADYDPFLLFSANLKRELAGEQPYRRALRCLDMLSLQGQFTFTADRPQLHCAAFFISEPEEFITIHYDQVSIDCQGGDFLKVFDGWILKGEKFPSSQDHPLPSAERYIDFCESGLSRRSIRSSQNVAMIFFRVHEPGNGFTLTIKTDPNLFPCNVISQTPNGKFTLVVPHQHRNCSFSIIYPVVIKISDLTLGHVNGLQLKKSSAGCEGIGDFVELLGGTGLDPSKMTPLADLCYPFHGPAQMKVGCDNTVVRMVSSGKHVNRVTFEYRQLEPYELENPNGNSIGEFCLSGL

Aminopeptidase N = target: T2, Aminopeptidase N (Plasmodium falciparum FcB1/Columbia, UniProt O96935); assay: malaria alanyl aminopeptidase activity blockers – biochemical, fluorogenic H-Leu-NHMec substrate, 1536-well (AID 1445); parameters: species or system Plasmodium falciparum 3D7, 3D7
T2 sequence (O96935 whole entry): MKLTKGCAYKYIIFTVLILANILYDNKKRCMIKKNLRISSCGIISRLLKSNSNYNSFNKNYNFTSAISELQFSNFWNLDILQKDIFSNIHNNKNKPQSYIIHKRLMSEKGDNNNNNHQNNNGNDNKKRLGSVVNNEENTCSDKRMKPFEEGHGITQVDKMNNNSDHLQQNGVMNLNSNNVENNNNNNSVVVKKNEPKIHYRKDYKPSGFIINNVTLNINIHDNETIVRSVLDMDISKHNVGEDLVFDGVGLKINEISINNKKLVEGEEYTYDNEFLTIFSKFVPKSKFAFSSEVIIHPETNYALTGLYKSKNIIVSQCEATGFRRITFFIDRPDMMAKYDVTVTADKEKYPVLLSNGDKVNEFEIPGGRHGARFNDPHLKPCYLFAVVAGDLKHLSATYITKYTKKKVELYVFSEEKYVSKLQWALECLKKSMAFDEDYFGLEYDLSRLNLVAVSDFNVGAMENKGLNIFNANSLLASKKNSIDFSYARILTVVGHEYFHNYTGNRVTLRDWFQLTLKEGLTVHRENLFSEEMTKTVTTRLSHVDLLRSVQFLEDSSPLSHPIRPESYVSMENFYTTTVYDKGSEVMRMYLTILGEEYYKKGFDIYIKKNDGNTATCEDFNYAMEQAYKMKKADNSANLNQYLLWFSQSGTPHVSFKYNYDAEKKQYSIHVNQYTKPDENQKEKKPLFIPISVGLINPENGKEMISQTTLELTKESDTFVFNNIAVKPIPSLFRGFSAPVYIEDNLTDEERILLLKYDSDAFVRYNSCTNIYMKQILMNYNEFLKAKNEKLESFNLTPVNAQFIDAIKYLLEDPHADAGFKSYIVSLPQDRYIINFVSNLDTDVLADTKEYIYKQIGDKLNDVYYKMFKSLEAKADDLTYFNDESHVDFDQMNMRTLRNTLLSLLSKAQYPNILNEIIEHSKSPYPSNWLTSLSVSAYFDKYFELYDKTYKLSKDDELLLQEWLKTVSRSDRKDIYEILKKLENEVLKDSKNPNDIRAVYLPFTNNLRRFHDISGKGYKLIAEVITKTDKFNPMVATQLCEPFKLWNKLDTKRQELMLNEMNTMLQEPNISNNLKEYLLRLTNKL

[5] = blockers of CRF-binding protein–CRF-R2 complex – cell-based, uHTS hits, 384-well, dose response (AID 651639); assay type: functional, Homo sapiens; settings: read-out: IC50_Mean
[6] = target: T1, Corticotropin-releasing factor receptor 2/Corticotropin-releasing factor-binding protein; assay: activators of CRF receptor 2 with binding protein – uHTS hits, confirmation (AID 602473); assay type: functional; settings: read-out: EC50_Mean
Vero = assay: cells; assay type: functional; settings: Chlorocebus sabaeus
[7] = HGIII-sPLA2 enzyme inhibition potency – biochemical, QFRET, IC50, dose response (AID 743457);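 note: green fluorescence rise as the enzyme cleaves BODIPY PC-A2 in liposomes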
[8] = target: T3, Short transient receptor potential channel 4 (Mus musculus, UniProt Q9QUQ5); assay: calcium entry via TRPC4 opening agents – cell-based, HEK293 TRPC4/mu-opioid, Fluo-4 calcium, dose response (AID 434937); assay type: functional
T3 sequence (Q9QUQ5 whole entry): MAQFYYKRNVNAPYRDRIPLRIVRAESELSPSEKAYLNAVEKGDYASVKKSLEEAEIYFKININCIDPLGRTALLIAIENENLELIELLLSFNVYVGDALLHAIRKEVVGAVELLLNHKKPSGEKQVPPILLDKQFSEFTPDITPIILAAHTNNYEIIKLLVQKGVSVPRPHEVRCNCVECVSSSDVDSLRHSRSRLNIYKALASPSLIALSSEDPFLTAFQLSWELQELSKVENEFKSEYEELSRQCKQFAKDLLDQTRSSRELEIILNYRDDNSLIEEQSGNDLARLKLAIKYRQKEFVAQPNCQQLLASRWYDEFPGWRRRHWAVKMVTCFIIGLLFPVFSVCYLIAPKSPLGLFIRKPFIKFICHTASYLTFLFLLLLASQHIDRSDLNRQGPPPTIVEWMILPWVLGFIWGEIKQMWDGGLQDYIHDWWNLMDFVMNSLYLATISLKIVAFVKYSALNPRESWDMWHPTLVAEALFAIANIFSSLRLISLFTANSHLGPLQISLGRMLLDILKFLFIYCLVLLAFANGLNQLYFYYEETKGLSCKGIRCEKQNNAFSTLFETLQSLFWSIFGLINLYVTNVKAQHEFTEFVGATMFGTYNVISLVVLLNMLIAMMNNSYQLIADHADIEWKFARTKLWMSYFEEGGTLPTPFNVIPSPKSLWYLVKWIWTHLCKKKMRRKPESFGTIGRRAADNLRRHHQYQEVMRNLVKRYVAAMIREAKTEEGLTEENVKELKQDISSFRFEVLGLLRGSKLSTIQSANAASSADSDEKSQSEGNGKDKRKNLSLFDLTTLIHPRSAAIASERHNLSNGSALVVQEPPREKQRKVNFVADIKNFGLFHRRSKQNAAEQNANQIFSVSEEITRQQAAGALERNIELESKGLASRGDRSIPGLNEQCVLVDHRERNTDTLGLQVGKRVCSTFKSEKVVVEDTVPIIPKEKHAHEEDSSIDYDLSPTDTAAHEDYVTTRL

[9] = viability of HCT116 lacking mutant beta-catenin – cell-based, human colon tumor, dose response (AID 1045); assay type: functional;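 note: HCT116 colon tumor cells with beta catenin knocked out; cells exposed to compound for 60 hours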
[10] = viability of PTEN-deleted HCT116 cells – cell-based, HCT116 PTEN knockout, dose response (AID 1047); assay type: functional;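 note: HCT116 colon tumor cells with PTEN knocked out; cells exposed to compound for 60 hours before readout; potency for loss of cell viability measured by luminescence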
[11] = luciferase reporter signal suppression in cells – H4 neuroglioma cells, luminescence, dose response (AID 1990); assay type: functional, cell-based
[12] = alpha-synuclein stem-loop luciferase translation blockers – H4 neuroglioma cells, luminescence, confirmation (AID 1988); assay type: functional, cell-based
[13] = Luminescence Cell-Based Dose Response HTS to Identify Inhibitors of 5'UTR Stem-Loop Driven Prion Protein mRNA Translation in H4 Neuroglioblastoma Cells. [Related pubchem assays: 1827 (Project Summary), 1813 (Primary HTS)]; assay type: functional
[14] = HEK-293T viability loss after treatment – luminescence, T-cell screen hits, cytotoxicity control for TCR NF-kB inhibitor project, dose response (AID 489026); assay type: functional, cell-based;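 note: cells exposed to compound about 14 hours before the viability readout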
[15] = system: Streptococcus sp. 'group A'; assay: Streptococcus pyogenes SK(-)GAS viability under kanamycin – luminescence, BacTiterGlo, confirmation, counter-screen for streptokinase expression inhibitor project, dose response (AID 1900); assay type: functional, organism-based
Streptococcus = assay: GAS UMAA2166 growth inhibition – luminescence, BacTiterGlo, counter-screen for streptokinase expression inhibitor project, dose response (AID 1915); assay type: functional, organism-based;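 note: potency for reduction of bacterial viability or growth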

Voltage-dependent T-type calcium channel subunit alpha-1H, sequence (O95180 whole entry): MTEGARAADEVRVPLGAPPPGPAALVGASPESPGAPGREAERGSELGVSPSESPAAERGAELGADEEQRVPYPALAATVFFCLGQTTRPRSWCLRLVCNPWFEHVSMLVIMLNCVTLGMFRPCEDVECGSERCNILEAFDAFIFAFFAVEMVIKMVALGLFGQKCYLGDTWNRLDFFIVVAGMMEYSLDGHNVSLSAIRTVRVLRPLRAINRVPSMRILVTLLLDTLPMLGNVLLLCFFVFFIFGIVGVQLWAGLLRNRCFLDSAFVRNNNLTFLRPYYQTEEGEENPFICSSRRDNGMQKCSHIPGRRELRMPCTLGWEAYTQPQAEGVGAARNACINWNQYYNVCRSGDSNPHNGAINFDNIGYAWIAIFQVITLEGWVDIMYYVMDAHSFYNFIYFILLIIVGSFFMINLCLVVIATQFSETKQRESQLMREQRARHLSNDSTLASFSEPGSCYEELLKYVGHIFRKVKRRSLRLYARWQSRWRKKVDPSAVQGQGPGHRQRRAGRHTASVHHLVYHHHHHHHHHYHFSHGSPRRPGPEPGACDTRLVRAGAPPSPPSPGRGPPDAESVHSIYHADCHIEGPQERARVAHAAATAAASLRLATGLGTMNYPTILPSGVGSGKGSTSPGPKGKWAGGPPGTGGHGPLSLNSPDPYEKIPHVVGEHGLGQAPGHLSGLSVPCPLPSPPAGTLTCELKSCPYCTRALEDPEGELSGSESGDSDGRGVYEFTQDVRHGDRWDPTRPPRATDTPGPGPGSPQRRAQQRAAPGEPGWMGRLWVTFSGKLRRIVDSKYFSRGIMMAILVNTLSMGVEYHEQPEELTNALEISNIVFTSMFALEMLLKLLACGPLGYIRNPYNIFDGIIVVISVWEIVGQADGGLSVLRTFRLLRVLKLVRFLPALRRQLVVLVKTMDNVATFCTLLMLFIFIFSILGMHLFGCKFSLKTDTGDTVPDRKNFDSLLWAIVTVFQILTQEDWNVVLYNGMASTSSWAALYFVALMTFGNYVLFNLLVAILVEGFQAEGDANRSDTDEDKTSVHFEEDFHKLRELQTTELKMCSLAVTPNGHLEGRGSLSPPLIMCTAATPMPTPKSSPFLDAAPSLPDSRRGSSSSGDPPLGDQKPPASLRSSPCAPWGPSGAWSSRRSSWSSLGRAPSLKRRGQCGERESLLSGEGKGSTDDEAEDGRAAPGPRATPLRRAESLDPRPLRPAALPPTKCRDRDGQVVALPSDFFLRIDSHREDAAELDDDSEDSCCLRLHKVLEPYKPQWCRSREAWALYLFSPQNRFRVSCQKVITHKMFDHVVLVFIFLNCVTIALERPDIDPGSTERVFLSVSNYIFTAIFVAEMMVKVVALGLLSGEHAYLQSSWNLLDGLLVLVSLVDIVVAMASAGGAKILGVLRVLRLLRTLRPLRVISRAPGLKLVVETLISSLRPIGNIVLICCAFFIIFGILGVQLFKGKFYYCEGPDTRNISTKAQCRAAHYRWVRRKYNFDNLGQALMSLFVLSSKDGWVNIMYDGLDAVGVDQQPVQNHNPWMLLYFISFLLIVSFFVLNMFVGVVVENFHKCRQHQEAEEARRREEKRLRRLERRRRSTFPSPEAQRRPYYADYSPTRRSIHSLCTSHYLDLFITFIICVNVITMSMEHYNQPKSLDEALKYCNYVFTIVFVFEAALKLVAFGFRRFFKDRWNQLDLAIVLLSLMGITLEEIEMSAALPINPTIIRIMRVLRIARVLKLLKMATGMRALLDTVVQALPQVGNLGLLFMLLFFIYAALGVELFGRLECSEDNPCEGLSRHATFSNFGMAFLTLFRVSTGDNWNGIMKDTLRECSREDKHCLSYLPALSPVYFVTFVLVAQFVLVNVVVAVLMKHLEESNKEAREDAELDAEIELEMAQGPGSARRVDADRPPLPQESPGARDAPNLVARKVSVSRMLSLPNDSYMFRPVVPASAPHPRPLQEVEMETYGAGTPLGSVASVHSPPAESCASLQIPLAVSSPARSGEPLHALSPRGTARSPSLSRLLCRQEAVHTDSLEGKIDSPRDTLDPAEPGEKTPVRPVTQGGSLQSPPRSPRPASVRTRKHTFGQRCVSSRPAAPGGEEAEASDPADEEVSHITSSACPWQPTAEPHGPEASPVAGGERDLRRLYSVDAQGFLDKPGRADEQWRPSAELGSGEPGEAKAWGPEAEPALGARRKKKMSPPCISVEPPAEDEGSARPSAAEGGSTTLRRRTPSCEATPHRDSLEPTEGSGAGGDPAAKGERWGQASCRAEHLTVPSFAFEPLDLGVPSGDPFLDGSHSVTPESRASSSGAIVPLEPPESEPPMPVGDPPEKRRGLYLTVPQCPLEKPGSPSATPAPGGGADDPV
Eukaryotic translation initiation factor 4E, sequence (P63073 whole entry): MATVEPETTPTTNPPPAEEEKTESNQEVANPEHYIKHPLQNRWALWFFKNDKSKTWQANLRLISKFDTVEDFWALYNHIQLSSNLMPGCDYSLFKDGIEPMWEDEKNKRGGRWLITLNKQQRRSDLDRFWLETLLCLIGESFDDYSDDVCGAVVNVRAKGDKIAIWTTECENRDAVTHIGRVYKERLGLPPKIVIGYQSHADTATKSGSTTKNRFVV
Cytochrome P450 3A4, sequence (P08684 whole entry): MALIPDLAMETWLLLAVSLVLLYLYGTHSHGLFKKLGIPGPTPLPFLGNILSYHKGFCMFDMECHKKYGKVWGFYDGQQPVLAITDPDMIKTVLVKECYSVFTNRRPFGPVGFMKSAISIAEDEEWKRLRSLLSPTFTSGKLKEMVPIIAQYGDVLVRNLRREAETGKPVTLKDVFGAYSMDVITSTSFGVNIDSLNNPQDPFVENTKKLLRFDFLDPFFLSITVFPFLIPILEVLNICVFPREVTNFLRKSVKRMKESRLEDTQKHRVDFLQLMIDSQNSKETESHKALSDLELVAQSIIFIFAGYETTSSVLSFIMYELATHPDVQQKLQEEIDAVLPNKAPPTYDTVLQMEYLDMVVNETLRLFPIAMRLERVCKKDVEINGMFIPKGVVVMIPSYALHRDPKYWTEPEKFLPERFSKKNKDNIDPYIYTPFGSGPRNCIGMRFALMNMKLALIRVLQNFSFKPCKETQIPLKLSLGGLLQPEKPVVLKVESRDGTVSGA

Cc1cc(C)n(-c2nnc3n2N=C(c2ccccc2)CS3)n1
IC50 [1]: > 64 µM (inactive)

c1ccc2sc(N3CN(CCN4CCOCC4)CN(c4nc5ccccc5s4)C3)nc2c1
EC50 [2]: > 50 µM (active) | EC50 [3]: 5.23 µM (active)

Cc1ccc(-c2nnn(C(C)C(=O)N3c4ccccc4CCc4ccccc43)n2)cc1 (stereo unspecified)
EC50 [3]: 7.47 µM (active)

CC1(C(=O)NCCN2CCOCC2)C=CCN1C(=O)c1ccccc1 (stereo unspecified)
AC50 (Cytochrome P450 3A4): 25.1 µM (inconclusive)

CC(C)N1C(=O)S/C(=C/c2ccccc2OCc2ccc(C(=O)O)cc2)C1=O
IC50 [4]: 25.5 µM (active) | IC50 (Aminopeptidase N): 38.1 µM (active) | IC50 [5]: > 20 µM (inactive) | EC50 [6]: > 53 µM (inactive)

O=C(NNC(=S)NC(=O)c1ccccc1Cl)c1cccc([N+](=O)[O-])c1
CC50 (Vero): > 25 µM (active) | IC50 [7]: 22.3 µM (inactive) | EC50 [8]: 5.96 µM (active) | EC50 [6]: 11.2 µM (active)

COc1ccc(O)c(/C=C(\C#N)C(=O)Nc2cccnc2)c1
IC50 [1]: > 64 µM (inactive)

CCN(CC)S(=O)(=O)c1cc(C(=O)Nc2ccc(Cl)cn2)ccc1C
EC50 [3]: 2.3 µM (active)

Cc1ccc(-n2c(Cc3cccn3C)nnc2SCC(=O)Nc2ccc3c(c2)OCO3)cc1
EC50 [3]: 1.25 µM (active)

CCOC(=O)c1c(CSC(=N)N)n(-c2ccc(Br)cc2)c2cc(Br)c(OC(C)=O)cc12
EC50 [9]: 14.3 µM (active) | EC50 [10]: 16.1 µM (active) | IC50 [1]: > 64 µM (inactive)

Cc1sc(NC(=O)Cn2nc(C(F)(F)F)cc2C)c(C(=O)OC(C)C)c1C
IC50 [1]: > 64 µM (inactive)

Cc1oc(-c2ccccc2Cl)nc1C[S+]([O-])CC(=O)NCCCN1CC(C)CC(C)C1 (stereo unspecified)
EC50 [8]: 0.299 µM (active)

CCCN(CCC)CCCNC(=O)c1ccc2c(Cl)c3c(nc2c1)CCC3
EC50 [8]: 0.0107 µM (active)

CCOC(=O)c1oc2ccc(OC)cc2c1NC(=O)CN1CCN(C)CC1
EC50 [8]: 1.06 µM (active)

COc1ccccc1NC(=O)C1=C(C)Nc2nc3ccccc3n2C1c1cccs1 (stereo unspecified)
EC50 [11]: 7.89 µM (inconclusive) | EC50 [12]: 5.03 µM (active) | EC50 [13]: 9.88 µM (active) | IC50 [14]: > 80 µM (inactive)

Cc1onc(-c2c(F)cccc2Cl)c1C(=O)N1CCN(c2ncc(Br)cn2)CC1
IC50 [4]: > 47.1 µM (inactive) | EC50 [8]: 4.73 µM (active) | EC50 [6]: > 53 µM (inactive)

CSCc1nnc(NC(=O)c2ccc(S(=O)(=O)N(CC(C)C)CC(C)C)cc2)o1
EC50 [15]: 1.01 µM (active) | EC50 [3]: 3.07 µM (active) | EC50 (Streptococcus): 2.51 µM (active)

CCCCCCN(C(=O)CCCCCN1C(=O)NC(c2ccc(-c3ccccc3)cc2)C(C(=O)OCc2ccccc2)=C1C)C(C(=O)NCCCC)c1cccc(C(=O)OC)c1 (stereo unspecified)
AC50 (Cytochrome P450 3A4): 2.51 µM (inconclusive)

C[C@@H]1O[C@@H](O[C@@H]2[C@@H](O)[C@H](OCCc3ccc(O)c(O)c3)O[C@H](CO[C@@H]3O[C@H](CO)[C@@H](O)[C@H](O)[C@H]3O)[C@H]2OC(=O)/C=C/c2ccc(O)c(O)c2)[C@H](O)[C@H](O)[C@H]1O
AC50 (Cytochrome P450 3A4): 7.94 µM (inconclusive)

C=CCCCCCCCCCCC/C=C/C(O)COC(C)=O (stereo unspecified) [DEHYDROAVOCATIN-1-ACETATE]
AC50 (Cytochrome P450 3A4): 39.8 µM (inconclusive)
